Test results reported in ChEMBL document CHEMBL1201862, “PubChem BioAssay data set” (2004).
Calls of active or inactive are those of the source.

Tests used:
Fatty acid synthase [1] = molecular target: T1, Fatty acid synthase (Homo sapiens, UniProt P49327); assay: FAS thioesterase domain inhibitors, dose response, biochemical, kinetic fluorescence intensity (AID 624326); assay type: functional;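 further: rate of fluorescence rise from hydrolysis of a fluorogenic O-methyl fluorescein ester substrate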
T1 sequence (P49327 whole entry, the tested form may be a part): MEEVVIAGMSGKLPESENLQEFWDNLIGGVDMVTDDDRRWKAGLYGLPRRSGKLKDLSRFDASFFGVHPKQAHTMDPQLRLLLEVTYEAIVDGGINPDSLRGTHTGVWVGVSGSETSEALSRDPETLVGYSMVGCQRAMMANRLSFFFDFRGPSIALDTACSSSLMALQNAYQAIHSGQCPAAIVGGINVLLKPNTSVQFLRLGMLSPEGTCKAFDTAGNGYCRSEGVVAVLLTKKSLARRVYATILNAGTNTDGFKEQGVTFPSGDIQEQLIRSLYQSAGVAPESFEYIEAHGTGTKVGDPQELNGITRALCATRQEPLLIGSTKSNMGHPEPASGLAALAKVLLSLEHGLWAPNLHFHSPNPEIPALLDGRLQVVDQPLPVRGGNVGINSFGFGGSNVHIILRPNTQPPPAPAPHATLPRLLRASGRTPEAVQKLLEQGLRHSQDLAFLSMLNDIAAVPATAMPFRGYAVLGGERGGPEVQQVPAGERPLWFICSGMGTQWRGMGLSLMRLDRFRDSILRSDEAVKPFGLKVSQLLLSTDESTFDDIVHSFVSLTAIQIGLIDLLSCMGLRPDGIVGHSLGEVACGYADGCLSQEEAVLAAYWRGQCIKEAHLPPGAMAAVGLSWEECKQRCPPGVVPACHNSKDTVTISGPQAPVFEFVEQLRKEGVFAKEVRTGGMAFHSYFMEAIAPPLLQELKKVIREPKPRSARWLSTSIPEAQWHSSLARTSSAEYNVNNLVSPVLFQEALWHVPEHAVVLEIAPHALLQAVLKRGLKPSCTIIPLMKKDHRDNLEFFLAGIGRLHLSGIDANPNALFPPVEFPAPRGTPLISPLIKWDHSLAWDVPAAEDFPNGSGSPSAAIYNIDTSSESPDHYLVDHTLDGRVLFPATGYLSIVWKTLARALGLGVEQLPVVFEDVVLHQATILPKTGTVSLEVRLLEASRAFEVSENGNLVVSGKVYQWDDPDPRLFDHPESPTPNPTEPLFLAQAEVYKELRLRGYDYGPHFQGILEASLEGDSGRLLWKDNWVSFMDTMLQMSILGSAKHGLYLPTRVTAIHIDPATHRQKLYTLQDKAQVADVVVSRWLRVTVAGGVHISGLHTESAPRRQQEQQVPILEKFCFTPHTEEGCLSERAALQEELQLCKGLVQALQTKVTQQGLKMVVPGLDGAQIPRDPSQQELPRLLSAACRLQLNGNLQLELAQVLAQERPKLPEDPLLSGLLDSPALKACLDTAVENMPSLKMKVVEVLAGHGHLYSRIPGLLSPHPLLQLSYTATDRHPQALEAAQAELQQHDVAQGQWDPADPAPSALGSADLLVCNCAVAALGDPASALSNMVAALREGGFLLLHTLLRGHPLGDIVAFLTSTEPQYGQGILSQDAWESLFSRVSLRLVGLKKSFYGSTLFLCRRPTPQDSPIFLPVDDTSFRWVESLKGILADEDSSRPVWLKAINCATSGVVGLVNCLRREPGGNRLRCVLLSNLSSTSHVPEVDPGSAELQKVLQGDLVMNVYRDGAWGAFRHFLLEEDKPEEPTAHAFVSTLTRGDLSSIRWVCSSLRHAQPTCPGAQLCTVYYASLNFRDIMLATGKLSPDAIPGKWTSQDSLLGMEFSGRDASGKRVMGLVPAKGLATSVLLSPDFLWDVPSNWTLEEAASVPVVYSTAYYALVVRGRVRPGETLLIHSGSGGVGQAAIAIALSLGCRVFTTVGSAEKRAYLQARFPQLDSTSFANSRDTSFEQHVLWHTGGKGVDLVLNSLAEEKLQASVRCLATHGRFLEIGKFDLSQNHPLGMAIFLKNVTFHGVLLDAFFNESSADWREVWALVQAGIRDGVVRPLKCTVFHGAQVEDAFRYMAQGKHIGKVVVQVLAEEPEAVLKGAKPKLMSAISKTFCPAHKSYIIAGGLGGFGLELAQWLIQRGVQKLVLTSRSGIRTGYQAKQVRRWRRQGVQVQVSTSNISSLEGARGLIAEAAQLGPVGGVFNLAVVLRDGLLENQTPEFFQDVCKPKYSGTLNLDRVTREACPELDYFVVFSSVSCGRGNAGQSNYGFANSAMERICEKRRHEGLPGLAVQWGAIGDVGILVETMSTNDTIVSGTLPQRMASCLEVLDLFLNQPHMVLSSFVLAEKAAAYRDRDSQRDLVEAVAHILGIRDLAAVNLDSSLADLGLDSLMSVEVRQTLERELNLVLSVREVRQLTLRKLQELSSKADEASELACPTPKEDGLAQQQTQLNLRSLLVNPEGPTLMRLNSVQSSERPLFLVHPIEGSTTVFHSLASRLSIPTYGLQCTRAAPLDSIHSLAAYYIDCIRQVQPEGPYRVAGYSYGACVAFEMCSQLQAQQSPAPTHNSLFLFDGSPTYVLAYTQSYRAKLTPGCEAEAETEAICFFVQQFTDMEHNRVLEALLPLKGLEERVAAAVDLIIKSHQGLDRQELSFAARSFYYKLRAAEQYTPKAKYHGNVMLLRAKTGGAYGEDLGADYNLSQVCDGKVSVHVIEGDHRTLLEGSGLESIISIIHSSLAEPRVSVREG

[2] = molecular target: T2, Corticotropin-releasing factor receptor 2/Corticotropin-releasing factor-binding protein (Homo sapiens, UniProt P24387+Q13324); assay: Dose Response confirmation of uHTS hits for small molecule antagonists of the CRF-binding protein and CRF-R2 receptor complex.; assay type: functional; details: read-out: IC50_Mean
T2 sequence (Q13324 whole entry): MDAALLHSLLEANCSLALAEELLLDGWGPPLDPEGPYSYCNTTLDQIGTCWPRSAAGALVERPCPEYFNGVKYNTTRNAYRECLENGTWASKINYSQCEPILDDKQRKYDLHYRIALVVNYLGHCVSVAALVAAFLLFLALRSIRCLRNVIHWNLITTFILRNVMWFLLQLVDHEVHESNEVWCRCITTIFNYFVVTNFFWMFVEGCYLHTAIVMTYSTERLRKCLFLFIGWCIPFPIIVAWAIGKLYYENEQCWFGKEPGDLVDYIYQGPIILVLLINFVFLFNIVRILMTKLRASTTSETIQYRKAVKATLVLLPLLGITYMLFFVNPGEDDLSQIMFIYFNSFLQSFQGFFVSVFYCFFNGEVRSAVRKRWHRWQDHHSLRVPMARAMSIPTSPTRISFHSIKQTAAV
T2 sequence (P24387 whole entry): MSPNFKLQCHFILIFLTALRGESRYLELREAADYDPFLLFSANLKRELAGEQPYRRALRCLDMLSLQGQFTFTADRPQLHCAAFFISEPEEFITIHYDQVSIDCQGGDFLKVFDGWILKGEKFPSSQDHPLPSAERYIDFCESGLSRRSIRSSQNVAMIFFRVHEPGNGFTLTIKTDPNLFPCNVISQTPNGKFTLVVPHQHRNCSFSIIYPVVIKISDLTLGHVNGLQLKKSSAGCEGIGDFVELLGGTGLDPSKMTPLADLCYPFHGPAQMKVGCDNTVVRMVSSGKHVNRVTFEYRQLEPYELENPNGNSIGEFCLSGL

[3] = molecular target: T3, Sentrin-specific protease 8 (Homo sapiens, UniProt Q96LD8); assay type: functional
T3 sequence (Q96LD8 whole entry): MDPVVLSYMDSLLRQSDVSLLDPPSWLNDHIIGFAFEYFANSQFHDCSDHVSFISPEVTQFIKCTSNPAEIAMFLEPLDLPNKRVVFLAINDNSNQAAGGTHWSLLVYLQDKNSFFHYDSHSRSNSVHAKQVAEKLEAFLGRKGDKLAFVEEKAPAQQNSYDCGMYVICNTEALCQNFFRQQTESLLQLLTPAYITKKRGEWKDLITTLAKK

Fatty acid synthase [4] = molecular target: T1, Fatty acid synthase; assay: FAS thioesterase domain inhibitors, dose response, biochemical, endpoint fluorescence intensity, uHTS hits (AID 624327); assay type: functional;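 further: fluorescence from hydrolysis of an O-methyl fluorescein acyl ester substrate by the enzyme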
[5] = molecular target: T2, Corticotropin-releasing factor receptor 2/Corticotropin-releasing factor-binding protein; assay: activators of CRF receptor 2 with binding protein – uHTS hits, confirmation (AID 602473); assay type: functional; details: read-out: EC50_Mean
[6] = molecular target: T4, Carboxy-terminal domain RNA polymerase II polypeptide A small phosphatase 1 (Homo sapiens, UniProt Q9GZU7); assay: inhibitors of CTDSP1, concentration-response testing, biochemical assay, absorbance-based, actives from ultra-high-throughput screening (AID 540297); assay type: functional
T4 sequence (Q9GZU7 whole entry): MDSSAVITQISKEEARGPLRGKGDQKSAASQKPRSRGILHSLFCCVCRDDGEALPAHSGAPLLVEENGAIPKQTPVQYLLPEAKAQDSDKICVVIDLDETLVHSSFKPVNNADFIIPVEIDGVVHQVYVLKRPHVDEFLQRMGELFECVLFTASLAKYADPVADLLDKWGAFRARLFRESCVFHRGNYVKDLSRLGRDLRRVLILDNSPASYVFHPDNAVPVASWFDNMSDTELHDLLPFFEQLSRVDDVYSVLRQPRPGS

[7] = molecular target: T3, Sentrin-specific protease 8; assay type: functional; remark: listed apart in the source
Mu-type opioid receptor = Mu-type opioid receptor (Homo sapiens, UniProt P35372); assay type: functional, cell-based;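 further: U2OS cells with beta-arrestin recruitment to OPRM1 by beta-gal complementation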
Sequence of Mu-type opioid receptor (P35372 whole entry): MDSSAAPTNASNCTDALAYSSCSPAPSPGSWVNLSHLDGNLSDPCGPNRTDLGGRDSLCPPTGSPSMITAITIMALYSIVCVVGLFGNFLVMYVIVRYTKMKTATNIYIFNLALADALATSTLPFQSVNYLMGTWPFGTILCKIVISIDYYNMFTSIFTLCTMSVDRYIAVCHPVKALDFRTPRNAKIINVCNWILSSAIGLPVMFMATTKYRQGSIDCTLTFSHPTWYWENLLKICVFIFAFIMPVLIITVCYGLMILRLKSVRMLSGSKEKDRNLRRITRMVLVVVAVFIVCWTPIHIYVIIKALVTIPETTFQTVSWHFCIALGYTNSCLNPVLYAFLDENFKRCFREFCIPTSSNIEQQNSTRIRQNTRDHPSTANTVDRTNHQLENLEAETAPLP

[8] = molecular target: 5-hydroxytryptamine receptor 2A (Mus musculus, UniProt P35363); assay type: functional, cell-based;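 further: CHO-K1 cells with tagged receptor and beta-arrestin; agonist potency measured as compound-induced activation of the receptor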
Sequence of 5-hydroxytryptamine receptor 2A (P35363 whole entry): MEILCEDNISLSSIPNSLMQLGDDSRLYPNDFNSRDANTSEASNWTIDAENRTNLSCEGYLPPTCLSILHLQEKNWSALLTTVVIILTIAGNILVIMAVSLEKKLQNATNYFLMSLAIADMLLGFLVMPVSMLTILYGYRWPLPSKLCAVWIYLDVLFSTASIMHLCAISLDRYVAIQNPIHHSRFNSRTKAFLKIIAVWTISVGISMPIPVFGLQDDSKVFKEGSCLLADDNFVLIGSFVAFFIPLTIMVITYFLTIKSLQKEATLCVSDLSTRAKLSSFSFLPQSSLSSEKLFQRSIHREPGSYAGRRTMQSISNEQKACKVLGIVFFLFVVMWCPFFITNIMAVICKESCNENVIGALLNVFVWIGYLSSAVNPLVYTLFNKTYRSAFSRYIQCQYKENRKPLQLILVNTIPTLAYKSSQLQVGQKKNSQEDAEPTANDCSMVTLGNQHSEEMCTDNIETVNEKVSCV

Protein skinhead-1 = molecular target: T5, Protein skinhead-1 (Caenorhabditis elegans, UniProt P34707); assay type: functional
T5 sequence (P34707 whole entry): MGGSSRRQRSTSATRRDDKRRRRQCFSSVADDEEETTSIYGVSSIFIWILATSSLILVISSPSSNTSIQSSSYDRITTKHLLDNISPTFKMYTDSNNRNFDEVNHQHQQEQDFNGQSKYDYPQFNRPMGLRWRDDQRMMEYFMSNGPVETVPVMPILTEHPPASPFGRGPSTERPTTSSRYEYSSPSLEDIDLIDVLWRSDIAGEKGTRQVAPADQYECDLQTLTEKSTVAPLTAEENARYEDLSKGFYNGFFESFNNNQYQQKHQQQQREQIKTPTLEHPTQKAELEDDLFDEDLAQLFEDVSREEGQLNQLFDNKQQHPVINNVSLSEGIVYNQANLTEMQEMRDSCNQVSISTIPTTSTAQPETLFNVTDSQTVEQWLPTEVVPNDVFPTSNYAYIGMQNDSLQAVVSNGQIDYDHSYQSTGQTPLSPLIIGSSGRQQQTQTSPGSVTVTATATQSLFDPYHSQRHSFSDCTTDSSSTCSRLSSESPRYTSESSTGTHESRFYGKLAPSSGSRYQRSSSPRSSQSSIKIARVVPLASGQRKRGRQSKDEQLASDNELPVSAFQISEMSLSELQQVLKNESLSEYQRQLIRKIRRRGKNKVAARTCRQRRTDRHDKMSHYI

cells = assay type: functional
[9] = CRF-BP/CRF-R2 complex antagonists, dose response, cell-based, uHTS hits, 384-well (AID 651639); assay type: functional, Homo sapiens; details: read-out: IC50_Mean
[10] = molecular target: T6, RNA-binding protein pos-1 (Caenorhabditis elegans, UniProt G5EF15); assay: inhibitors of POS-1/mex-3 RNA binding, dose response, biochemical, fluorescence polarization (AID 1964);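 further: purified POS-1 fused to maltose binding protein made in E. coli; potency of compounds blocking POS-1 binding to fluorescent RNA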
T6 sequence (G5EF15 whole entry): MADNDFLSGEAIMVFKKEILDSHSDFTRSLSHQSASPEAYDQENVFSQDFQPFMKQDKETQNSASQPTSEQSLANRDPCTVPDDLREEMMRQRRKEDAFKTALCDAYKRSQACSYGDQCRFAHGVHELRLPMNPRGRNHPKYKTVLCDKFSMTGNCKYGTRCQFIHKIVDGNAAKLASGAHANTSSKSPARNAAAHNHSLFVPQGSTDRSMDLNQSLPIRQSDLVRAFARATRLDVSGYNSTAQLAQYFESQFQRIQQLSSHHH

[11] = molecular target: T7, Zinc finger protein mex-5 (Caenorhabditis elegans, UniProt Q9XUB2); assay: MEX-5/TCR-2 RNA interaction inhibitors, dose response, biochemical, C. elegans, fluorescence polarization (AID 1960)
T7 sequence (Q9XUB2 whole entry): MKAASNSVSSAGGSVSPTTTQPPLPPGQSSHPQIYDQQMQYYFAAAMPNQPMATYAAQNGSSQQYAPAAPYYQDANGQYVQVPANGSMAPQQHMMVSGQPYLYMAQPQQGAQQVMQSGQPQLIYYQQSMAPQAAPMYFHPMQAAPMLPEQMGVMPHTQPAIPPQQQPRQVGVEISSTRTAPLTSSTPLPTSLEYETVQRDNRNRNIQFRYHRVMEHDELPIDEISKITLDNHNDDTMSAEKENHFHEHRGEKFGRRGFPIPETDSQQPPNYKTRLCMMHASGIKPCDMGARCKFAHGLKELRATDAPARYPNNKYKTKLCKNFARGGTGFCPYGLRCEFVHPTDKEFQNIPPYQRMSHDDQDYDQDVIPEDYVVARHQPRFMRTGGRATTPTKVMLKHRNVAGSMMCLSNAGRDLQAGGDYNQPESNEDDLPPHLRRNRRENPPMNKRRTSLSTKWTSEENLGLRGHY

Aminopeptidase N = molecular target: T8, Aminopeptidase N (Plasmodium falciparum FcB1/Columbia, UniProt O96935); assay: P. falciparum M1AAP inhibitors, biochemical, fluorogenic H-Leu-NHMec substrate, 1536-well (AID 1445); design: species or system Plasmodium falciparum 3D7, 3D7
T8 sequence (O96935 whole entry): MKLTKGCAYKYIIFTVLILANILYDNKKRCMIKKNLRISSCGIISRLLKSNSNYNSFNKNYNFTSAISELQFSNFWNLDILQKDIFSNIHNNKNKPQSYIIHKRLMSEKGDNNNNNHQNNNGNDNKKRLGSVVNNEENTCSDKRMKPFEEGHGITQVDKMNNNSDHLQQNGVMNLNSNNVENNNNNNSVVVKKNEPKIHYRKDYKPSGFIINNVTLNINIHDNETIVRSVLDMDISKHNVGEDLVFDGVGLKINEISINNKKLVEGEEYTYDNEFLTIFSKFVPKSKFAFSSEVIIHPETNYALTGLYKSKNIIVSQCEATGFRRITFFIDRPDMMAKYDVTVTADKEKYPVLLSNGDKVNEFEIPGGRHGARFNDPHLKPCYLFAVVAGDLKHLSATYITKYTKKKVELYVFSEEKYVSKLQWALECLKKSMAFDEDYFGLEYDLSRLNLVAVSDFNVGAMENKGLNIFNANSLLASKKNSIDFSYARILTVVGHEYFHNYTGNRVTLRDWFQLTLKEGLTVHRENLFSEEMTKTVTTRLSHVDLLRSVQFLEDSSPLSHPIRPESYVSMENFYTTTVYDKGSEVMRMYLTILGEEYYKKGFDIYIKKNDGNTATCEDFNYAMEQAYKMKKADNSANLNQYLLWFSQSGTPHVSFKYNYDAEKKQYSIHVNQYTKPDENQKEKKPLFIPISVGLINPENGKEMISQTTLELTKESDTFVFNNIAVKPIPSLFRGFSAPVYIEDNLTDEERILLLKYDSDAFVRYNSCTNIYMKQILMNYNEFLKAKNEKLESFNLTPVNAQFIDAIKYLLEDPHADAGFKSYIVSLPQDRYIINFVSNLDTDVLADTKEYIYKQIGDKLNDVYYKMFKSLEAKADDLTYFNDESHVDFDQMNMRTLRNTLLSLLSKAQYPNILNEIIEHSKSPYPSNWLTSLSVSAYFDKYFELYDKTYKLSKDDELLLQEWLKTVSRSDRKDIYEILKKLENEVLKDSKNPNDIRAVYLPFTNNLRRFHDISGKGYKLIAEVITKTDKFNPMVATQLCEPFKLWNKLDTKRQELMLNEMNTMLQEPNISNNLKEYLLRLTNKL

Albumin = Albumin (Bos taurus, UniProt P02769); assay: Counterscreen for inhibitors of T-cell receptor (TCR)-CD3 interaction: Fluorescence-based biochemical high throughput dose response assay to identify inhibitors of T-cell receptor (TCR)-CD3 interaction using a TAMRA-labeled BSA probe.; assay type: functional
Sequence of Albumin (P02769 whole entry): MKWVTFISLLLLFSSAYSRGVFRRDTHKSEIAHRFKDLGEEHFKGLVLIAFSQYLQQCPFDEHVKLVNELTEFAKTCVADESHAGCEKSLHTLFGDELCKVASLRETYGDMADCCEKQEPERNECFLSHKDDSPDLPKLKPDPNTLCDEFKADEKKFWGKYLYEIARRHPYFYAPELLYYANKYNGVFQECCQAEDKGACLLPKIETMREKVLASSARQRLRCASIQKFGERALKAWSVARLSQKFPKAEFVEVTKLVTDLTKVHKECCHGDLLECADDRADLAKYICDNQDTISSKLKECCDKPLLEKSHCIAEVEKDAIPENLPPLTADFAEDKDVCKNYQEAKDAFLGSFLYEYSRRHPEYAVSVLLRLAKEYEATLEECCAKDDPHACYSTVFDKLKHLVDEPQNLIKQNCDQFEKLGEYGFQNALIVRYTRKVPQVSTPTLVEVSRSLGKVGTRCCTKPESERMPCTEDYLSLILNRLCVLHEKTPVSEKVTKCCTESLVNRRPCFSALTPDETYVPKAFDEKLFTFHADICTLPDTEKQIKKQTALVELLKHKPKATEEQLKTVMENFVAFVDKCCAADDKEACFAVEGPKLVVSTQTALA

Streptococcus = assay: Group A Streptococcus viability loss, dose response, counter-screen for streptokinase expression inhibitor project, luminescence, BacTiterGlo (AID 1915); assay type: functional, organism-based;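 further: potency for reduction of bacterial viability or growth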
[12] = test system: Streptococcus sp. 'group A'; assay: growth inhibition of control SK(-) GAS strain, dose response, counter-screen for streptokinase expression inhibitor project, luminescence, kanamycin, BacTiterGlo, confirmation (AID 1900); assay type: functional, organism-based
Vero = assay: cells; assay type: functional; details: Chlorocebus sabaeus
[13] = inhibitors of clade B AD8 Env fusion, dose response, cell-based, cherry-pick (AID 652062); assay type: functional;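 further: luciferase signal from cell-cell fusion driven by HIV-1 clade B AD8 Env; potency is for inhibitors of fusion seen as a drop in luminescence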
[14] = off-target signal loss in HeLa-CEM21 co-culture – HeLa F-luc CTL cells, cherry-picked, counter-screen for HIV-1 Env fusion inhibitor project, dose response (AID 652040); assay type: functional, cell-based;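 further: potency for signal decrease marking cytotoxic or nonspecific inhibition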
[15] = ZM109 Env clade C HIV-1 fusion inhibitors, dose response, HeLa effector, CEM target cells, luciferase, cherry-pick (AID 652058); assay type: functional, cell-based
[16] = CEM21 lymphoblast cell cytotoxicity, dose response, cytotoxicity control for viral fusion inhibitor project, CellTiter-Glo luminescence, cherry-picked (AID 652042); assay type: functional, cell-based;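 further: potency for signal decrease meaning cytotoxicity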
[17] = inhibitors of HIV Env-driven cell fusion, dose response, cherry-pick (AID 652057); assay type: functional, cell-based

## Cc1ccc(-n2[nH]c(C)c(/C=N/Nc3ccc([N+](=O)[O-])cc3[N+](=O)[O-])c2=O)cc1
Fatty acid synthase [1]
  IC50: 13.6 µM (active)
[2]
  IC50: 6.1 µM (active)
[3]
  IC50: 62.4 µM (inactive)
Fatty acid synthase [4]
  IC50: 12.6 µM (active)
[5]
  EC50: > 53 µM (inactive)
[6]
  IC50: 6.07 µM (active)
[7]
  IC50: 100 µM (inactive)

## O=C(c1ccco1)N1CCN(CCCCOc2ccc(F)cc2)CC1
Mu-type opioid receptor
  EC50: 92.5 µM (inactive)
[8]
  EC50: 4.68 µM (active)

## Cc1cc(C)n(-c2ccc(C(=O)Oc3ccc4c(c3)OCO4)cc2)n1
Protein skinhead-1
  IC50: > 100 µM (inactive)
[2]
  IC50: 9.66 µM (active)
cells
  IC50: 6.28 µM (active)
[5]
  EC50: > 53 µM (inactive)
[9]
  IC50: > 20 µM (inactive)

## Cc1cc(C(=O)N/N=C/c2cc(Cl)cc([N+](=O)[O-])c2O)[nH]n1
[10]
  EC50: > 300 µM (not active)
[11]
  EC50: > 300 µM (inconclusive)
Aminopeptidase N
  IC50: 52.3 µM (active)
Albumin
  IC50: > 94.1 µM (inactive)

## CCOC(=O)C1CCN(Cc2cccc(Oc3ccc(Cl)cc3)c2)CC1
Mu-type opioid receptor
  EC50: 92.5 µM (inactive)
[8]
  EC50: 2.82 µM (active)

## O=C(C1CCC1)N1CCc2cc(S(=O)(=O)NCCN3CCN(c4ccccc4F)CC3)ccc21
Mu-type opioid receptor
  EC50: 92.5 µM (inactive)
[8]
  EC50: 13.4 µM (inactive)

## COc1ccc(C(=O)NNC(=S)NC(=O)c2ccc(Br)o2)cc1OC
Streptococcus
  EC50: 9.11 µM (active)
[12]
  EC50: 0.79 µM (active)
Vero
  CC50: > 25 µM (active)
Albumin
  IC50: > 94.1 µM (inactive)

## COc1ccc(CC(N)c2csc(NC(=O)Nc3ccccc3Oc3ccccc3)n2)cc1 (stereo unspecified)
[13]
  AC50: 2.16 µM (active)
[14]
  AC50: 1.72 µM (active)
[15]
  AC50: 2.85 µM (active)
[16]
  AC50: 21.3 µM (active)
[17]
  AC50: 1.17 µM (active)
